The values that follow come from patent US9725703B2, “Formulations and methods for stabilizing PCR reagents” (BIOMATRICA, INC., priority 2012, dated 2017).

Each structure is given as a SMILES string.

This test addresses T1, Roche FastStart Taq polymerase (Thermus aquaticus, UniProt P19821).
T1 construct: purchased Roche
The test is described as follows: Multiplex end-point PCR (GAPDH) with stabilized Roche FastStart Taq after storage. The format is biochemical. As to conditions: 3 weeks at 45° C.; polymerase mixed 1:4 with stabilizer; FIG. 1b. Here is the method:
Roche FastStart Taq polymerase (stored at −20° C. in 50% glycerol) was mixed in a 1:4 ratio with a range of liquid stabilizer solutions as set forth in Table 4 and incubated at both room temperature and 45° C. A non-protected sample was also included where the polymerase was mixed with an additional quantity of its storage buffer. At various time points, aliquots were taken from the stabilized enzyme solutions and used to perform end-point PCR assays. At each time point, the stabilized enzymes were compared to a frozen positive control enzyme in the same assay.
For end-point PCR, a multiplex assay using three primer sets to generate 3 different size fragments of the GAPDH gene was used. Typical PCR reactions contained the following: 1× Roche PCR reaction buffer, 10 ng human genomic DNA, 300 μM dNTPs, 240 nM GAPDH primer set A, 600 nM GAPDH primer set B, 1.2 μM GAPDH primer set C, and 1 unit Roche FastStart Taq polymerase. Cycling conditions were 2 minutes at 95° C. followed by 35 cycles of 30 seconds at 95° C., 30 seconds at 56° C., 30 seconds at 68° C., followed by 5 minutes at 68° C. PCR products were run on 2% agarose gels and visualized using ethidium bromide.

T1 sequence (P19821 whole entry): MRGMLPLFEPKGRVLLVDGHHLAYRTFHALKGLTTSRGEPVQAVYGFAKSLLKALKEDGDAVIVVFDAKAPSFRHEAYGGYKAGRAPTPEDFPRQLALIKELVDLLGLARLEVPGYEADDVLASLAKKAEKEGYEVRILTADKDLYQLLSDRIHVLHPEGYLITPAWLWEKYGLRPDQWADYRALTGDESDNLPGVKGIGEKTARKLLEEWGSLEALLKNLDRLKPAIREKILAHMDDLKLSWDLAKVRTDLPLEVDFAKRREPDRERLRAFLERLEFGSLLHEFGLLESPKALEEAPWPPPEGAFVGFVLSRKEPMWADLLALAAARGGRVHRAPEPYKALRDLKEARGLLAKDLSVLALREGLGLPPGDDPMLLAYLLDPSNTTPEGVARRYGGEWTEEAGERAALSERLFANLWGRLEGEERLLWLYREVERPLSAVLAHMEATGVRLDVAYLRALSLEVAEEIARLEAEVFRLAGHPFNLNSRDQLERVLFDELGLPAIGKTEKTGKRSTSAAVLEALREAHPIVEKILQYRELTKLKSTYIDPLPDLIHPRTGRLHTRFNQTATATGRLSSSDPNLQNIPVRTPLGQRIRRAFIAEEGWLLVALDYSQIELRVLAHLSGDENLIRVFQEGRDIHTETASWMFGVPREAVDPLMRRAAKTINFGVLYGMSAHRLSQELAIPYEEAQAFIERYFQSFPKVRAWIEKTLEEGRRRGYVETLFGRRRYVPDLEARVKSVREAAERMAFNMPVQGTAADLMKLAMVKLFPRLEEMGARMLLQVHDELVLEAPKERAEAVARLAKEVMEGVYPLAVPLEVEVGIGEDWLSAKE

Consider `C[N+]1(CCC(=O)[O-])CCC(O)CC1` (stereo not shown) [Compound 102, 3-(4-hydroxy-1-methylpiperidinium-1-yl)propanoate], for which the “polymerase activity after storage (end-point PCR)” value is “provides increased stability”.
